Experimental data as given in patent US20230126447A1, “OCULAR DRUG DEPOT FOR COMPLEMENT-MEDIATED DISORDERS” (priority 2020, published 2023).
Where two headings read alike, the source gives them in different places.

Assay: Ocular tissue distribution and pharmacokinetics, 7.5 and 15 mg/kg oral, pigmented Dutch Belted rabbits (Example 7)
Type: in vivo
Details: for Mean retina concentration / Mean plasma concentration / concentration at 0 h / concentration at 1 h / concentration at 6 h / concentration at 24 h / concentration at 96 h / concentration at 168 h / concentration at 12 h / concentration at 240 h: DB rabbits; for Tmax / concentration at 0 h / concentration at 1 h / concentration at 6 h / concentration at 24 h / concentration at 96 h / concentration at 168 h / concentration at 12 h / concentration at 240 h / MRT last: Dutch Belted, rabbit; for concentration at 0 h / concentration at 1 h / concentration at 6 h / concentration at 24 h / concentration at 96 h / concentration at 168 h / concentration at 12 h / concentration at 240 h: oral
Protocol: For Group 1, two animals/time point were sacrificed via an overdose of sodium pentobarbital at approximately 1, 6, 12, 24, 96, 168, and 240 hours postdose. Blood (approximately 2 mL) was collected from all animals at sacrifice into tubes containing K2EDTA via exsanguination (cardiac puncture).
For Groups 2 through 4, blood (approximately 2 mL) was collected via a jugular vein using a syringe and needle and was transferred into tubes containing K2EDTA at approximately 12 hours after the a.m. dose on Day 15 from the two animals designated for sacrifice at approximately 240 hours after the a.m. dose on Day 15.
For Groups 2 through 4, two animals/group/time point were sacrificed via an overdose of sodium pentobarbital prior to dosing on Day 15 and at approximately 1, 6, 24, 96, 168, and 240 hours after the a.m. dose on Day 15. Blood (approximately 2 mL) was collected from all animals at sacrifice into tubes containing K2EDTA via exsanguination (cardiac puncture).
Blood was maintained on wet ice, in chilled cryoracks, or at approximately 5° C. prior to centrifugation to obtain plasma. Centrifugation began within 1 hour of collection (Deviation). Plasma was placed into 96-well tubes with barcode labels. Plasma was maintained on dry ice prior to storage at approximately −70° C.
At the time of sacrifice, both eyes were enucleated, and the following tissues were collected. Each eye was flash-frozen in liquid nitrogen for 15 to 20 seconds. The enucleated eye was placed on dry ice or stored at approximately −70° C. for at least 2 hours. Within approximately 3 days, the frozen matrices were collected as right and left eyes for each matrix into the specific tube type listed.
At the time of frozen collection, the ocular tissues were rinsed with saline and blotted dry (as appropriate), weighed, and placed on dry ice. All ocular tissues were collected as single samples.

[1] = Choroid-RPE (OU), male DB rabbits, Group 1, Day 1, […] single oral dose
[2] = Choroid-RPE (OU), male DB rabbits, Group 2, Day 15, […] BID oral (15 mg/kg/day)
[3] = Choroid-RPE (OU), male DB rabbits, Group 3, Day 15, 15 mg/kg/dose BID oral (30 mg/kg/day)
[4] = choroid-RPE, 15 mg/kg, Day 15, 15 mg/kg BID, read-out: Mean Choroid-RPE Concentration
[5] = choroid-RPE, […], Day 1, […] single dose, read-out: Mean Choroid-RPE Concentration
[6] = choroid-RPE, […], Day 15, […] BID, read-out: Mean Choroid-RPE Concentration
[7] = iris-ciliary body (ICB), ICB (OU), male DB rabbits, Group 1, Day 1, 7.5 mg/kg single oral dose
[8] = iris-ciliary body, 15 mg/kg, Day 15, 15 mg/kg BID, read-out: Mean Iris-Ciliary Concentration
[9] = iris-ciliary body, […], Day 1, […] single dose, read-out: Mean Iris-Ciliary Concentration
[10] = iris-ciliary body, […], Day 15, […] BID, read-out: Mean Iris-Ciliary Concentration
[11] = plasma, 15 mg/kg, Day 15, 15 mg/kg BID, read-out: Mean Plasma Concentration
[12] = plasma, […], Day 1, […] single dose, read-out: Mean Plasma Concentration
[13] = plasma, […], Day 15, […] BID, read-out: Mean Plasma Concentration
[14] = retina, 15 mg/kg, Day 15, 15 mg/kg BID, read-out: Mean Retina Concentration
[15] = retina, […], Day 15, […] BID, read-out: Mean Retina Concentration

With CC(=O)c1nn(CC(=O)N2C[C@H](F)C[C@H]2C(=O)Nc2cccc(Br)n2)c2ccc(-c3cnc(C)nc3)cc12 [Compound 1, (2S,4R)-1-(2-(3-Acetyl-5-(2-methylpyrimidin-5-yl)-1H-indazol-1-yl)acetyl)-N-(6-bromopyridin-2-yl)-4-fluoropyrrolidine-2-carboxamide] the “Ocular tissue exposure in melanin-containing tissues (ICB and choroid-RPE), DB compared to NZW rabbits” value (30 mg/kg/day (15 mg/kg/dose, BID)) was “greater than 10 fold”, the AUC0-12 [1] was 5550 ng·h/g and the AUC0-240 [1] was 14000 ng·h/g. The AUC(0-24) [1] was 7580 ng·h/g, the AUC(0-inf) [1] was 14500 ng·h/g and the AUC(0-t) [1] was 14000 ng·h/g. The Ctrough [1] was 260 ng/g, the “DN AUC0-12” value [1] was 740 (h*ng/g)/(mg/kg/dose) and the “DN AUC0-24” value [1] was 1010 (h*ng/g)/(mg/kg/day). The “DN Cmax” value [1] was 96.8 (ng/g)/(mg/kg/day, the AUC0-12 [2] was 18500 ng·h/g and the AUC0-240 [2] was 89100 ng·h/g. The AUC(0-24) [2] was 30100 ng·h/g, the AUC(0-t) [2] was 89100 ng·h/g and the Ctrough [2] was 1250 ng/g. The “DN AUC0-12” value [2] was 2470 (h*ng/g)/(mg/kg/dose), the “DN AUC0-24” value [2] was 4020 (h*ng/g)/(mg/kg/day) and the “DN Cmax” value [2] was 267 (ng/g)/(mg/kg/day. The AUC0-12 [3] was 28200 ng·h/g, the AUC0-240 [3] was 151000 ng·h/g and the AUC(0-24) [3] was 47500 ng·h/g. The AUC(0-t) [3] was 151000 ng·h/g, the Ctrough [3] was 1740 ng/g and the “DN AUC0-12” value [3] was 1880 (h*ng/g)/(mg/kg/dose). The “DN AUC0-24” value [3] was 3170 (h*ng/g)/(mg/kg/day), the “DN Cmax” value [3] was 265 (ng/g)/(mg/kg/day and the “Mean retina concentration” value (Day 1, […] single dose, 24 hr) was “BLQ”. For the same molecule, the “Mean plasma concentration” value (Day 1, […] single dose, 96 hr) was “BLQ”, the “Mean retina concentration” value (Day 1, […] single dose, 96 hr) was “BLQ” and the “Mean plasma concentration” value (Day 1, […] single dose, 168 hr) was “BLQ”. The “Mean retina concentration” value (Day 1, […] single dose, 168 hr) was “BLQ”, the “Mean plasma concentration” value (Day 1, […] single dose, 240 hr) was “BLQ” and the “Mean retina concentration” value (Day 1, […] single dose, 240 hr) was “BLQ”. For the same molecule, the “Mean plasma concentration” value (Day 15, 15 mg/kg BID, 96 hr) was “BLQ”, the “Mean plasma concentration” value (Day 15, 15 mg/kg BID, 168 hr) was “BLQ” and the “Mean plasma concentration” value (Day 15, 15 mg/kg BID, 240 hr) was “BLQ”. For the same molecule, the “Mean plasma concentration” value (Day 15, […] BID, 96 hr) was “BLQ”, the “Mean plasma concentration” value (Day 15, […] BID, 168 hr) was “BLQ” and the “Mean plasma concentration” value (Day 15, […] BID, 240 hr) was “BLQ”. The Tmax (choroid-RPE (choroid-retinal pigment epithelium), Choroid-RPE (OU), male DB rabbits, Group 1, Day 1, 7.5 mg/kg single oral dose) was 1 h, the concentration at 0 h [4] was 1540 ng/g and the concentration at 1 h [4] was 3970 ng/g. It also gave a concentration at 6 h [4] of 1880 ng/g, a concentration at 24 h (choroid-RPE, 15 mg/kg, Day 15, 15 mg/kg BID, 24 hr, read-out: Mean Choroid-RPE Concentration) of 1470 ng/g and a concentration at 96 h (choroid-RPE, 15 mg/kg, Day 15, 15 mg/kg BID, 96 hr, read-out: Mean Choroid-RPE Concentration) of 441 ng/g. For the same molecule, the concentration at 168 h (choroid-RPE, 15 mg/kg, Day 15, 15 mg/kg BID, 168 hr, read-out: Mean Choroid-RPE Concentration) was 195 ng/g, the concentration at 1 h [5] was 726 ng/g and the concentration at 6 h [5] was 472 ng/g. The concentration at 12 h [5] was 260 ng/g, the concentration at 24 h (choroid-RPE, […], Day 1, […] single dose, 24 hr, read-out: Mean Choroid-RPE Concentration) was 78 ng/g and the concentration at 96 h (choroid-RPE, […], Day 1, […] single dose, 96 hr, read-out: Mean Choroid-RPE Concentration) was 28.4 ng/g. It also gave a concentration at 168 h (choroid-RPE, […], Day 1, […] single dose, 168 hr, read-out: Mean Choroid-RPE Concentration) of 19.4 ng/g, a concentration at 0 h [6] of 695 ng/g and a concentration at 1 h [6] of 2000 ng/g. It also gave a concentration at 6 h [6] of 1530 ng/g, a concentration at 24 h (choroid-RPE, […], Day 15, […] BID, 24 hr, read-out: Mean Choroid-RPE Concentration) of 685 ng/g and a concentration at 96 h (choroid-RPE, […], Day 15, […] BID, 96 hr, read-out: Mean Choroid-RPE Concentration) of 238 ng/g. The concentration at 168 h (choroid-RPE, […], Day 15, […] BID, 168 hr, read-out: Mean Choroid-RPE Concentration) was 183 ng/g, the concentration at 240 h (choroid-retinal pigment epithelium (choroid-RPE), 15 mg/kg, Day 15, 15 mg/kg BID, 240 hr, read-out: Mean Choroid-RPE Concentration) was 119 ng/g and the concentration at 240 h (choroid-retinal pigment epithelium (choroid-RPE), […], Day 1, […] single dose, 240 hr, read-out: Mean Choroid-RPE Concentration) was 5.23 ng/g. It also gave a concentration at 240 h (choroid-retinal pigment epithelium (choroid-RPE), […], Day 15, […] BID, 240 hr, read-out: Mean Choroid-RPE Concentration) of 111 ng/g, an MRT last (choroid-retinal pigment epithelium (choroid-RPE), Choroid-RPE (OU), male DB rabbits, Group 1, Day 1, 7.5 mg/kg single oral dose) of 42.8 h and a Tmax (choroid-retinal pigment epithelium (choroid-RPE), Choroid-RPE (OU), male DB rabbits, Group 2, Day 15, 7.5 mg/kg/dose BID oral (15 mg/kg/day)) of 1 h. For the same molecule, the Tmax (choroid-retinal pigment epithelium (choroid-RPE), Choroid-RPE (OU), male DB rabbits, Group 3, Day 15, 15 mg/kg/dose BID oral (30 mg/kg/day)) was 1 h, the MRT last [7] was 5.59 h and the Tmax [7] was 1 h. For the same molecule, the Tmax (iris-ciliary body (ICB), ICB (OU), male DB rabbits, Group 3, Day 15, 15 mg/kg/dose BID oral (30 mg/kg/day)) was 1 h, the concentration at 1 h [8] was 2050 ng/g and the concentration at 6 h [8] was 939 ng/g. The concentration at 24 h (iris-ciliary body, 15 mg/kg, Day 15, 15 mg/kg BID, 24 hr, read-out: Mean Iris-Ciliary Concentration) was 460 ng/g, the concentration at 1 h [9] was 435 ng/g and the concentration at 6 h [9] was 163 ng/g. For the same molecule, the concentration at 24 h (iris-ciliary body, […], Day 1, […] single dose, 24 hr, read-out: Mean Iris-Ciliary Concentration) was 31.4 ng/g, the concentration at 1 h [10] was 943 ng/g and the concentration at 6 h [10] was 634 ng/g. It also gave a concentration at 24 h (iris-ciliary body, […], Day 15, […] BID, 24 hr, read-out: Mean Iris-Ciliary Concentration) of 184 ng/g, a concentration at 0 h [11] of 36.4 ng/mL and a concentration at 1 h [11] of 910 ng/mL. It also gave a concentration at 6 h [11] of 130 ng/mL, a concentration at 12 h [11] of 54.3 ng/mL and a concentration at 24 h (plasma, 15 mg/kg, Day 15, 15 mg/kg BID, 24 hr, read-out: Mean Plasma Concentration) of 10.5 ng/mL. The concentration at 1 h [12] was 423 ng/mL, the concentration at 6 h [12] was 25.1 ng/mL and the concentration at 12 h [12] was 14.8 ng/mL. The concentration at 24 h (plasma, […], Day 1, […] single dose, 24 hr, read-out: Mean Plasma Concentration) was 3.26 ng/mL, the concentration at 0 h [13] was 22.2 ng/mL and the concentration at 1 h [13] was 440 ng/mL. The concentration at 6 h [13] was 90.1 ng/mL, the concentration at 12 h [13] was 29.6 ng/mL and the concentration at 24 h (plasma, […], Day 15, […] BID, 24 hr, read-out: Mean Plasma Concentration) was 6.64 ng/mL. It also gave a concentration at 6 h (retina, 15 mg/kg BID, Day 15, 15 mg/kg BID, read-out: Mean Retina Concentration) of 115 ng/g, a concentration at 24 h (retina, 15 mg/kg BID, Day 15, 15 mg/kg BID, 24 hr, read-out: Mean Retina Concentration) of 139 ng/g and a concentration at 96 h (retina, 15 mg/kg BID, Day 15, 15 mg/kg BID, 96 hr, read-out: Mean Retina Concentration) of 31.4 ng/g. It also gave a concentration at 168 h (retina, 15 mg/kg BID, Day 15, 15 mg/kg BID, 168 hr, read-out: Mean Retina Concentration) of 22.5 ng/g, a concentration at 240 h (retina, 15 mg/kg BID, Day 15, 15 mg/kg BID, 240 hr, read-out: Mean Retina Concentration) of 19.7 ng/g and a concentration at 0 h [14] of 45 ng/g. The concentration at 1 h [14] was 1120 ng/g, the concentration at 1 h (retina, […], Day 1, […] single dose, read-out: Mean Retina Concentration) was 188 ng/g and the concentration at 0 h [15] was 20.7 ng/g. It also gave a concentration at 1 h [15] of 306 ng/g.
